The assay concerns the target T1, Drosophila SARM1 TIR domain (Drosophila melanogaster, UniProt Q6IDD9).
T1 construct: gene Sarm; TIR domain only; N-terminal 6xHis tag kept; codon optimized; E. coli BL21(DE3)
T1 sequence (Q6IDD9 837-981 limits assumed): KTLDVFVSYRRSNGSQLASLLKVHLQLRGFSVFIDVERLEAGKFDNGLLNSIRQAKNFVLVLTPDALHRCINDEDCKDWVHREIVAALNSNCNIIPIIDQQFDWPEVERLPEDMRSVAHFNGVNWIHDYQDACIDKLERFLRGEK
Kind of assay: LC-MS/MS of NAD+ and products. It counts as biochemical. Conditions: […] protein; […] NAD+; […] HEPES-KOH pH […]; […] NaCl; […] TCEP; […] C; […] h; main product cADPR.

On to `NC(=O)c1ccc[n+]([C@@H]2O[C@H](COP(=O)(O)OP(=O)(O)OC[C@H]3O[C@@H](n4cnc5c(N)ncnc54)[C@H](O)[C@@H]3O)[C@@H](O)[C@H]2O)c1` [NAD^+], for which the “LC-MS/MS of NAD+ and products” value is reported as “SARM1 TIR domains consumed NAD^+ efficiently”.

(Values after PMC11025887, “The SARM1 TIR domain produces glycocyclic ADPR molecules as minor products” (PLOS ONE, 2024).)
